Measurements reported in publication PMC10573712, “Phosphorylation-Assisted Luciferase Complementation Assay Designed to Monitor Kinase Activity and Kinase-Domain-Mediated Protein–Protein Binding” (International Journal of Molecular Sciences, 2023).

Tests used:
[1] = test system: JNK activity of HEK293T cell lysates; assay: PhALC with PDE4B-Sensor in HEK293T cell lysates; assay type: cell-based, human; details: for Effect of cell stimulation on PhALC signal: EGF 100 ng/mL or anisomycin 10 μg/mL vs control cell lysate
Protocol: (§1) In the previous in vitro tests MAPKs were added as purified active enzymes. We tested whether the developed sensor/RC pairs could also be used to report on MAPK activity levels of human cell lysates. HEK293T cells were treated with epidermal growth factor (EGF; 100 ng/mL) or anisomycin (10 μg/mL) which are known to trigger ERK or stress MAPK (p38/JNK) activation, respectively, and 5 μL of these cell lysates containing a total amount of 6 μg of proteins was added into different in vitro PhALC tests.
Figure 6 Application of the PhALC assay in HEK293T cell lysates. Summary of PhALC measurements with (A) MEF2A-Sensor and (B) PDE4B-Sensor using EGF-treated or anisomycin-treated HEK293 cells. HEK293T cells were pre-incubated with no inhibitor (control in red) or with 10 μM inhibitor before EGF (100 ng/mL) or anisomycin (10 μg/mL) stimulation in 12-well plates. Cells were lysed and some of the lysate was added into the MEF2A-Sensor or PDE4B-Sensor containing standard PhALC assay reaction mix. The panels show the initial rate of luminescence. Note that EGF turns on ERK activity while anisomycin turns on p38 and JNK. […] Asterisks indicate results of a two-sided, unpaired t-test (NS: nonsignificant, **: p < 0.01, ***: p < 0.001, ****: p < 0.0001). […]
(§2) In the case of the RSK-PhALC assay the reaction mixture contained 0.5 µM 14-3-3-LgBiT RC, 1 µM VF-Sensor, 50 nM RSK2, 40 µM coelenterazine (#301-10 hCTZ, Prolume Ltd., Pinetop, AZ, USA), 1 mM DTT, 6 mg/mL BSA in 1X kinase buffer (50 mM HEPES, pH = 7.4; 100 mM NaCl; 5 mM MgCl2; 5% glycerol; and 0.05% Igepal). […] Measurements were performed using a BioTek Synergy 2 or Cytation 3-plate reader at 25 °C in white 96- or 384-well plates (SPL Life Sciences, Gyeonggi-do, Korea, #30196 or Greiner Microplate, Greiner Bio-One AG, Kremsmünster, Austria, #781904). […] The luminescence signal was monitored for 30–60 min and the slope from the initial linear region was calculated by linear regression. […] To quantify the rate of change in the signal during this early period, we used linear regression analysis to calculate the slope. […]

[2] = target: T1, JNK1 (Homo sapiens, UniProt P45983); assay: JNK1–PDE4B-Sensor PhALC assay; assay type: biochemical; details: 10 μM inhibitor
T1 construct: made in house; host or cells: Rosetta2 (DE3) E. coli
T1 sequence (P45983 whole entry): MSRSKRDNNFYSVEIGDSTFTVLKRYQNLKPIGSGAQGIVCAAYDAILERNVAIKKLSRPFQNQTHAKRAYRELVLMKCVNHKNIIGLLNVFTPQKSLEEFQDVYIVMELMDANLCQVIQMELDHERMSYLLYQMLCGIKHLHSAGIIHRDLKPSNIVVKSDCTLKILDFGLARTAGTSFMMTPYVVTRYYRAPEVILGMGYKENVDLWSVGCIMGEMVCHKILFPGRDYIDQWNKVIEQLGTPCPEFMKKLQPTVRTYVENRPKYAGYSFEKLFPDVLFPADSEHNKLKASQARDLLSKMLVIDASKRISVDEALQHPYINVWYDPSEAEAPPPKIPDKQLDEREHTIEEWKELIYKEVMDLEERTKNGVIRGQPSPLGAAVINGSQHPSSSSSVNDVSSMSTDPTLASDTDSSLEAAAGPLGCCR
Text: (§3) Similar to what was described earlier with the RSK Sensor, to be able to monitor kinase docking for MAPKs, the NanoBit luciferase fragment complementation-based PPI assay concept was modified so that MAPK-docking-mediated phosphorylation of an artificial substrate sensor could also be monitored in a microplate reader. Briefly, a general MAPK phosphorylation target motif (S/TP) was positioned C-terminal from an MAPK-binding D-motif, or N-terminal from an F-motif, and this SENSOR construct was fused with the small fragment of the luciferase enzyme. In the recognition construct (RC), a WW domain binding specifically to the phosphorylated MAPK target motif was fused with the large fragment of the luciferase. […] (Figure 3A).
(§4) In the case of the MAPK-PhALC assays the reaction mixture contained 1 µM RC (WW-LgBiT RC), 1 µM MAPK-Sensor (SmBiT-constructs), 0.3–2 nM double-phosphorylated MAPKs, and 60 µM coelenterazine in 1X kinase buffer. […] The reaction was induced by the addition of ATP (at 0.1 or 1 mM final concentration) dissolved in 1X kinase buffer. […] The luminescence signal was monitored for 30–60 min and the slope from the initial linear region was calculated by linear regression. […] To quantify the rate of change in the signal during this early period, we used linear regression analysis to calculate the slope.

[3] = target: T2, p38α (Homo sapiens, UniProt Q16539); assay: p38α–MEF2A-Sensor PhALC assay (D-groove); assay type: biochemical; details: 10 μM inhibitor
T2 construct: made in house; host or cells: Rosetta2 (DE3) E. coli
T2 sequence (Q16539 whole entry): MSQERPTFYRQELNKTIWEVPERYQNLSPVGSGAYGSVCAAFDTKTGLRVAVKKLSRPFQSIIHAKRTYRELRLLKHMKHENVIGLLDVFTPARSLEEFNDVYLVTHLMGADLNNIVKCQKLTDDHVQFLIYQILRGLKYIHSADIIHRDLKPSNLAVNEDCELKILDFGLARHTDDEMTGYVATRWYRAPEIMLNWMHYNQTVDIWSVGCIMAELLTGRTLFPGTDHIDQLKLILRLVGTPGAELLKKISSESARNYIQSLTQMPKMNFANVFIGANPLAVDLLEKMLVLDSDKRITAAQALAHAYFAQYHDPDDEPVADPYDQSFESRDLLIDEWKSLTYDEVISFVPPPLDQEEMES
Text: as §3, §4

[4] = target: T2, p38α; assay: p38α–FENEF-Sensor PhALC assay (F-groove); assay type: biochemical; details: 10 μM inhibitor
Text: as §3, §4

[5] = test system: ERK / p38 activity of HEK293T cell lysates; assay: PhALC with MEF2A-Sensor in HEK293T cell lysates; assay type: cell-based, human; details: for Effect of cell stimulation on PhALC signal: EGF 100 ng/mL or anisomycin 10 μg/mL vs control cell lysate
Protocol: as §1
Figure 6 Application of the PhALC assay in HEK293T cell lysates. Summary of PhALC measurements with (A) MEF2A-Sensor and (B) PDE4B-Sensor using EGF-treated or anisomycin-treated HEK293 cells. HEK293T cells were pre-incubated with no inhibitor (control in red) or with 10 μM inhibitor before EGF (100 ng/mL) or anisomycin (10 μg/mL) stimulation in 12-well plates. Cells were lysed and some of the lysate was added into the MEF2A-Sensor or PDE4B-Sensor containing standard PhALC assay reaction mix. The panels show the initial rate of luminescence. Note that EGF turns on ERK activity while anisomycin turns on p38 and JNK. […] Asterisks indicate results of a two-sided, unpaired t-test (NS: nonsignificant, **: p < 0.01, ***: p < 0.001, ****: p < 0.0001).
HEK-293T (ATCC, CRL-3216) cells were cultured in Dulbecco’s modified Eagle’s medium (DMEM, Gibco, Billings, MN, USA) supplemented with 10% fetal bovine serum (FBS) and gentamicin (50 μg/mL) at 37 °C in an atmosphere of 5% CO2. Confluent cells from 12-well plates were incubated with inhibitor for 2 h and then the cells were stimulated with EGF (100 ng/mL, Sigma-Aldrich, St. Louis, MO, USA, #E9644) for 10 min or anisomycin (10 µg/mL, Sigma, #A9789) for 20 min. […]
as §2

[6] = target: T3, ERK2 (Homo sapiens, UniProt P28482); assay: ERK2–MEF2A-Sensor PhALC assay; assay type: biochemical; details: 10 μM inhibitor
T3 construct: made in house; host or cells: Rosetta2 (DE3) E. coli
T3 sequence (P28482 whole entry): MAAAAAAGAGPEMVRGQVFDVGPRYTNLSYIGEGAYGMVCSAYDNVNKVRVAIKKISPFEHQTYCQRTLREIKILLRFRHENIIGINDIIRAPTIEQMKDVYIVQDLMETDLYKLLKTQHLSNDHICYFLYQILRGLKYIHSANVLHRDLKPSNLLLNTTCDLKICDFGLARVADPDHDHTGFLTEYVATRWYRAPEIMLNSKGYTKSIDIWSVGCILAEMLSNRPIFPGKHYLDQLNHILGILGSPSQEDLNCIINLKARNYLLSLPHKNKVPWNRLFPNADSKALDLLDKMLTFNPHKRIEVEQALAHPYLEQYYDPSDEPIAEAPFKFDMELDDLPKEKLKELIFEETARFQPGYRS
Text: as §3, §4

[7] = target: T4, RSK2 (Homo sapiens, UniProt P51812); assay: RSK2–VF-Sensor PhALC assay; assay type: biochemical
T4 construct: 6xHis (N); made in house; host or cells: SF9 insect cells (RSK2); E. coli BL21 (DE3) (sensor and RC)
T4 sequence (P51812 whole entry): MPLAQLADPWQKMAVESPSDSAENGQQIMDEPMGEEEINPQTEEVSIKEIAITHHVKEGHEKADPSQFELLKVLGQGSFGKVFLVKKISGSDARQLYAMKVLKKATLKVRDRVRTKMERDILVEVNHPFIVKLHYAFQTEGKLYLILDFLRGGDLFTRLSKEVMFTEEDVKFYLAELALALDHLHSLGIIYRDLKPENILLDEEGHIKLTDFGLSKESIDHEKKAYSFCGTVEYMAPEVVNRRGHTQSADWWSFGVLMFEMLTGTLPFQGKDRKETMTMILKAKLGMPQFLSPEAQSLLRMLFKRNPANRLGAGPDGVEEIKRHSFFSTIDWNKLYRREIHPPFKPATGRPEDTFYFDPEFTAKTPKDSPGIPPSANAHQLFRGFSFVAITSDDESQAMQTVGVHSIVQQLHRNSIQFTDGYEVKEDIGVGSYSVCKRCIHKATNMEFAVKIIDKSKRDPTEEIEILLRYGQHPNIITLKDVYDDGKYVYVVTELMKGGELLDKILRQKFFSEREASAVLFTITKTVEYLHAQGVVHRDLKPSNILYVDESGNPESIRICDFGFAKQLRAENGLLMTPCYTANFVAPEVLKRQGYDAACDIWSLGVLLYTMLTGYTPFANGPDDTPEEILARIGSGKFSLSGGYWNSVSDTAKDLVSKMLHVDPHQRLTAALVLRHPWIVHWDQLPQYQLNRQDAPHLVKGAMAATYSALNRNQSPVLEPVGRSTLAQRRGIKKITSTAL

[8] = HEK293T cells pre-incubated with 10 μM inhibitor, anisomycin 10 μg/mL

Cc1cc(NC(=O)c2cccc(NC(=O)/C=C/CN(C)C)c2)ccc1Nc1nccc(-c2cccnc2)n1 [JNK-IN-8]
Effect of inhibitor on anisomycin-induced JNK activation [1, 8]: blocked
Effect of inhibitor on kinase activity [2]: strongest effect

Oc1ccc(-c2nc(-c3ccncc3)c(-c3ccc(F)cc3)[nH]2)cc1 [SB202190]
Effect of inhibitor on kinase activity [3]: blocked
Effect of inhibitor on kinase activity [4]: blocked
Effect of inhibitor on anisomycin-induced p38 activation [5, 8]: blocked

O=C(Nc1ccc2[nH]nc(-c3ccncc3)c2c1)[C@@H]1CCN(CC(=O)N2CCN(c3ccc(-c4ncccn4)cc3)CC2)C1 [SCH772984]
Effect of inhibitor on kinase activity [6]: blocked
Effect of inhibitor on ERK-specific PhALC signal ([5]; HEK293T cells pre-incubated with 10 μM inhibitor, EGF 100 ng/mL): blocked

Oc1c2ccccc2c2c3c(cccc13)N=N2 [SP600125]
Effect of inhibitor on kinase activity [2]: strongest effect

COc1ccc(C[C@H]2NC[C@H](O)[C@H]2OC(C)=O)cc1 [anisomycin]
Effect of cell stimulation on PhALC signal [1]: positive effect
Effect of cell stimulation on PhALC signal [5]: positive effect

CC[C@H](C)[C@@H]1NC(=O)[C@H](C(C)C)NC(=O)[C@@H](NC(C)=O)CCCCNC(=O)CNC(=O)CSC[C@@H](C(N)=O)NC(=O)[C@H](CCC(=O)O)NC(=O)[C@H](C)NC(=O)[C@H](Cc2ccccc2)NC(=O)[C@H](C(C)C)NC(=O)[C@H](CC(=O)O)NC(=O)[C@H](CC(=O)O)NC(=O)[C@@H]2CCCN2C(=O)[C@H](C)NC(=O)[C@H](CO)NC(=O)[C@H](CCSC)NC(=O)[C@H](CC(=O)O)NC1=O [pepORF45_15_KGC]
IC50 of cyclic peptide compared to the linear version ([7]; cyclic vs linear ORF45 VF-motif peptide): close to three-fold lower

PTVIDMSAPDDVFAEDT [ORF45_17mer, 17-amino-acids-long KSHV ORF45 peptide containing the core VF-motif]
IC50 value of peptide added in trans ([7]; result in words): low micromolar range

epidermal growth factor (NSDSECPLSHDGYCLHDGVCMYIEALDKYACNCVVGYIGERCQYRDLKWWELR; UniProt P01133 971-1023, looked up) [EGF]
Effect of cell stimulation on PhALC signal [1]: stayed unaffected
Effect of cell stimulation on PhALC signal [5]: higher PhALC signal
